Experimental data published in patent publication US12685726B2, “Sulfoximines as inhibitors of NaV1.8” (Gruenenthal GmbH, priority 2022, dated 2026).

Biological target: T1, human NaV 1.8 (Homo sapiens, UniProt Q9Y5Y9)
T1 construct: expressed in transfected cells; host or cells: HEK (recombinant cell line)
Test: Automated whole-cell patch clamp (Qube384) voltage-clamp recordings of sodium currents in HEK-NaV1.8 cell line
Type: cell-based
Conditions: read-out: Potency category (human NaV 1.8 IC50)
Outline: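 HEK cells expressing NaV1.8 with b3, whole-cell automated voltage clamp at room temperature or 19° C.; CsF-based internal, pH 7.4 external. State-dependent (−120 mV, V1/2 4 s, −10 mV test pulses) and 10/20 Hz 40-pulse protocols; ~12 min compound, vehicle-corrected, IC50 by 4-parameter logistic fit.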

T1 sequence (Q9Y5Y9 whole entry): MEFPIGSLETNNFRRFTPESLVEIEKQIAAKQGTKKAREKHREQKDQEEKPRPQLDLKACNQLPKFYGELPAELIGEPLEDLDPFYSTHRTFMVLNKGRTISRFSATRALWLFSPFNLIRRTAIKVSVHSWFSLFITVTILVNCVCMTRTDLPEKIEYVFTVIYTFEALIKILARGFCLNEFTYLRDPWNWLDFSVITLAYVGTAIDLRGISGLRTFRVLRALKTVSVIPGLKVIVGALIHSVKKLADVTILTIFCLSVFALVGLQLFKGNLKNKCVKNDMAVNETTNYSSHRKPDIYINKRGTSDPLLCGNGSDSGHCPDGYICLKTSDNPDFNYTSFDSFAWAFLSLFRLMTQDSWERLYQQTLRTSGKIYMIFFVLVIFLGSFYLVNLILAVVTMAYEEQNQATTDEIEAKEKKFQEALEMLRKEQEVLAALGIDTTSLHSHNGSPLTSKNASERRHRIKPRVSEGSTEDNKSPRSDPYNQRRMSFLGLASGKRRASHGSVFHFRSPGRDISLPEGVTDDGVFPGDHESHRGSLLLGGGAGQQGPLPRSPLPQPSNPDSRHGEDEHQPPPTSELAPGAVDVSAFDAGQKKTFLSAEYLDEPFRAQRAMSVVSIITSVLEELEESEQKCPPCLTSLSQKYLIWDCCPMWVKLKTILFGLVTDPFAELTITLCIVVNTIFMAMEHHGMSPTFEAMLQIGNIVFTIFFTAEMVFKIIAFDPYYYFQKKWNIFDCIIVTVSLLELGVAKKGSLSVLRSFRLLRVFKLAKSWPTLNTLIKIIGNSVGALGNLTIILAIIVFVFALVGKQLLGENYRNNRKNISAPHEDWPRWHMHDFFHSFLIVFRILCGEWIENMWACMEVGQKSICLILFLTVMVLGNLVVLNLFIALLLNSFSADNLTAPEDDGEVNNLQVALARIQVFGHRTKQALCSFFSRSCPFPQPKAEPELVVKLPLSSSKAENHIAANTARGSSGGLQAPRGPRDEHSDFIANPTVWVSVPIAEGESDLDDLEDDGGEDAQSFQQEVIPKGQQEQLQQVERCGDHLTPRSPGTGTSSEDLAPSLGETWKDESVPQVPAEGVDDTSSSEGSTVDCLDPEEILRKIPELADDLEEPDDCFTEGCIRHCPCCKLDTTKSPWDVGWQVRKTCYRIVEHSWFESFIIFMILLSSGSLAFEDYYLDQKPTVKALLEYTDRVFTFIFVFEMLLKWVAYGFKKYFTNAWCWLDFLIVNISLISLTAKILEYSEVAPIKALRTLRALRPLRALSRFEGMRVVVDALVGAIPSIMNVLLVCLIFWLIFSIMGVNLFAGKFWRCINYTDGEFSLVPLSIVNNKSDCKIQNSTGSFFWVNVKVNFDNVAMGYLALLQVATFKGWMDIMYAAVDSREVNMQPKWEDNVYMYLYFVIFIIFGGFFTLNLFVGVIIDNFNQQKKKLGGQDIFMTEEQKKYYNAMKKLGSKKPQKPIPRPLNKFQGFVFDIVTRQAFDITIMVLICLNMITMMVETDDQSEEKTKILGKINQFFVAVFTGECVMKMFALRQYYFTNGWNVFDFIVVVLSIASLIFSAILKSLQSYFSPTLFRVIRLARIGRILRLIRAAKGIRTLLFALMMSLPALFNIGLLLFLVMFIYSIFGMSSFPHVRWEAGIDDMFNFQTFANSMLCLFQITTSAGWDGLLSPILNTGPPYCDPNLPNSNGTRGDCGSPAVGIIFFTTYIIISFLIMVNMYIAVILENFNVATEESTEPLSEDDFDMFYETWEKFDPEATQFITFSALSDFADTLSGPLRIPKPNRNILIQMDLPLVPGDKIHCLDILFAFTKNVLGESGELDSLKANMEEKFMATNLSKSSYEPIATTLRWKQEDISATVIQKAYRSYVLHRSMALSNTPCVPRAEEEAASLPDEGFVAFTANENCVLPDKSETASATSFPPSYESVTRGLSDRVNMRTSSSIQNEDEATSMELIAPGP

IC50	SMILES
≤ 100 nM	CC1(Cn2nc(C(C)(C)C)c(C(F)(F)F)c2C(=O)Nc2ccnc(S(C)(=N)=O)c2)CC(F)(F)C1 (single isomer, unassigned) [Example 143a, 3-(Tert-butyl)-1-((3,3-difluoro-1-methylcyclobutyl)methyl)-N-(2-(S-methylsulfonimidoyl)pyridin-4-yl)-4-(trifluoromethyl)-1H-pyrazole-5-carboxamide]
≤ 100 nM	CC1(Cn2nc(C34CC(F)(C3)C4)c(C(F)(F)F)c2C(=O)Nc2ccc(F)c(S(C)(=N)=O)c2)CC(F)(F)C1 (single isomer, unassigned) [Example 141a, 1-((3,3-Difluoro-1-methylcyclobutyl)methyl)-N-(4-fluoro-3-(S-methylsulfonimidoyl)phenyl)-3-(3-fluorobicyclo[1.1.1]pentan-1-yl)-4-(trifluoromethyl)-1H-pyrazole-5-carboxamide]
≤ 100 nM	CC1(Cn2nc(C3(F)CC3)c(C(F)(F)F)c2C(=O)Nc2cccc(S(C)(=O)=NC(=O)C3COC3)c2)CC(F)(F)C1 (single isomer, unassigned) [Example 150a, 1-((3,3-Difluoro-1-methylcyclobutyl)methyl)-3-(1-fluorocyclopropyl)-N-(3-(S-methyl-N-(oxetane-3-carbonyl)sulfonimidoyl)phenyl)-4-(trifluoromethyl)-1H-pyrazole-5-carboxamide]
≤ 100 nM	Cc1c(C(C)(F)F)nn(CC2CCC(F)(F)CC2)c1C(=O)Nc1ccnc(S(C)(=N)=O)c1 (single isomer, unassigned) [Example 9a, 1-((4,4-difluorocyclohexyl)methyl)-3-(1,1-difluoroethyl)-4-methyl-N-(2-(S-methylsulfonimidoyl)pyridin-4-yl)-1H-pyrazole-5-carboxamide]
≤ 100 nM	CC1(Cn2nc(C3CC3(F)F)c(C(F)(F)F)c2C(=O)Nc2ccnc(S(C)(=N)=O)c2)CC(F)(F)C1 (single isomer, unassigned) [Example 63a, 1-((3,3-Difluoro-1-methylcyclobutyl)methyl)-3-(2,2-difluorocyclopropyl)-N-(2-(S-methylsulfonimidoyl)pyridin-4-yl)-4-(trifluoromethyl)-1H-pyrazole-5-carboxamide]
≤ 100 nM	CS(=N)(=O)c1cc(NC(=O)c2c(C(F)(F)F)c(C3CC3)nn2CC2C(F)(F)C23CCC3)ccn1 (single isomer, unassigned) [Example 136b, 3-Cyclopropyl-1-((2,2-difluorospiro[2.3]hexan-1-yl)methyl)-N-(2-(S-methylsulfonimidoyl)pyridin-4-yl)-4-(trifluoromethyl)-1H-pyrazole-5-carboxamide]
≤ 100 nM	CC1(Cn2nc(C(C)(C)C)c(C(F)(F)F)c2C(=O)Nc2ccnc(S(C)(=N)=O)c2)CC(F)(F)C1 (single isomer, unassigned) [Example 143b, 3-(Tert-butyl)-1-((3,3-difluoro-1-methylcyclobutyl)methyl)-N-(2-(S-methylsulfonimidoyl)pyridin-4-yl)-4-(trifluoromethyl)-1H-pyrazole-5-carboxamide]
≤ 100 nM	CC1(Cn2nc(C34CC(C3)C4)c(C(F)F)c2C(=O)Nc2ccnc(S(C)(=N)=O)c2)CC(F)(F)C1 (single isomer, unassigned) [Example 137a, 3-(Bicyclo[1.1.1]pentan-1-yl)-1-((3,3-difluoro-1-methylcyclobutyl)methyl)-4-(difluoromethyl)-N-(2-(S-methylsulfonimidoyl)pyridin-4-yl)-1H-pyrazole-5-carboxamide]
≤ 100 nM	CC1(Cn2nc(C3CC4(CC4)C3)c(C(F)(F)F)c2C(=O)Nc2ccnc(S(C)(=N)=O)c2)CC(F)(F)C1 (single isomer, unassigned) [Example 61a, 1-((3,3-Difluoro-1-methylcyclobutyl)methyl)-N-(2-(S-methylsulfonimidoyl)pyridin-4-yl)-3-(spiro[2.3]hexan-5-yl)-4-(trifluoromethyl)-1H-pyrazole-5-carboxamide]
≤ 100 nM	C[S@@](=N)(=O)c1cc(NC(=O)c2c(C(F)(F)F)c(C3CC3)nn2C[C@]2(C)C[C@H](C(F)(F)F)C2)ccn1 (single isomer, unassigned) [Example 86a, 3-cyclopropyl-1-(((trans)-1-methyl-3-(trifluoromethyl)cyclobutyl)methyl)-N-(2-(S-methylsulfonimidoyl)pyridin-4-yl)-4-(trifluoromethyl)-1H-pyrazole-5-carboxamide]
≤ 100 nM	CC1(Cn2nc(C34CC(F)(C3)C4)c(C(F)(F)F)c2C(=O)Nc2ccnc(S(C)(=N)=O)c2)CC(F)(F)C1 (single isomer, unassigned) [Example 110a, 1-((3,3-Difluoro-1-methylcyclobutyl)methyl)-3-(3-fluorobicyclo[1.1.1]pentan-1-yl)-N-(2-(S-methylsulfonimidoyl)pyridin-4-yl)-4-(trifluoromethyl)-1H-pyrazole-5-carboxamide]
1000 to 10000 nM	CS(=N)(=O)c1cc(NC(=O)c2c(C(F)(F)F)c(C3CC3)nn2CC2CCC23CNC3)ccn1 (single isomer, unassigned) [Example 153a, 1-((2-Azaspiro[3.3]heptan-5-yl)methyl)-3-cyclopropyl-N-(2-(S-methylsulfonimidoyl)pyridin-4-yl)-4-(trifluoromethyl)-1H-pyrazole-5-carboxamide]
≤ 100 nM	Cc1cc(NC(=O)c2c(C(F)(F)F)c(C3CC3)nn2CC2(C)CC(F)(F)C2)cc(S(C)(=N)=O)n1 (single isomer, unassigned) [Example 50b, 3-cyclopropyl-1-((3,3-difluoro-1-methylcyclobutyl)methyl)-N-(2-methyl-6-(S-methylsulfonimidoyl)pyridin-4-yl)-4-(trifluoromethyl)-1H-pyrazole-5-carboxamide]
≤ 100 nM	CC1(Cn2nc(C3(C(F)(F)F)CC3)c(C(F)(F)F)c2C(=O)Nc2ccnc(S(C)(=N)=O)c2)CC(F)(F)C1 (single isomer, unassigned) [Example 144b, 1-((3,3-Difluoro-1-methylcyclobutyl)methyl)-N-(2-(S-methylsulfonimidoyl)pyridin-4-yl)-4-(trifluoromethyl)-3-(1-(trifluoromethyl)cyclopropyl)-1H-pyrazole-5-carboxamide]
1000 to 10000 nM	CS(=N)(=O)c1cc(NC(=O)c2c(C(F)(F)F)c(C3CC3)nn2CC2CCC23CNC3)ccn1 (single isomer, unassigned) [Example 153b, 1-((2-Azaspiro[3.3]heptan-5-yl)methyl)-3-cyclopropyl-N-(2-(S-methylsulfonimidoyl)pyridin-4-yl)-4-(trifluoromethyl)-1H-pyrazole-5-carboxamide]
≤ 100 nM	CC1(Cn2nc(C3CC3)c(C(F)(F)F)c2C(=O)Nc2cncc(S(C)(=N)=O)c2)CC(F)(F)C1 (single isomer, unassigned) [Example 46b, 3-cyclopropyl-1-((3,3-difluoro-1-methylcyclobutyl)methyl)-N-(5-(S-methylsulfonimidoyl)pyridin-3-yl)-4-(trifluoromethyl)-1H-pyrazole-5-carboxamide]
≤ 100 nM	CS(=N)(=O)c1cc(NC(=O)c2c(C(F)(F)F)c(C3CC3)nn2C[C@@H]2CCC(F)(F)C2)ccn1 (single isomer, unassigned) [Example 17d]
≤ 100 nM	C[C@H]1C[C@@H]1c1nn(CC2(C)CC(F)(F)C2)c(C(=O)Nc2ccnc([S@@](C)(=N)=O)c2)c1C(F)(F)F (single isomer, unassigned) [Example 65b, 1-((3,3-Difluoro-1-methylcyclobutyl)methyl)-3-((trans)-2-methylcyclopropyl)-N-(2-(S-methylsulfonimidoyl)pyridin-4-yl)-4-(trifluoromethyl)-1H-pyrazole-5-carboxamide]
≤ 100 nM	CC1(Cn2nc(C34CC(C3)C4)c(C(F)(F)F)c2C(=O)Nc2ccnc(S(C)(=N)=O)c2)CC(F)(F)C1 (single isomer, unassigned) [Example 58a, 3-(Bicyclo[1.1.1]pentan-1-yl)-1-((3,3-difluoro-1-methylcyclobutyl)methyl)-N-(2-(S-methylsulfonimidoyl)pyridin-4-yl)-4-(trifluoromethyl)-1H-pyrazole-5-carboxamide]
≤ 100 nM	C[S@](=N)(=O)c1cc(NC(=O)c2c(C(F)(F)F)c(C3CC3)nn2C[C@]2(C)C[C@H](C(F)(F)F)C2)ccn1 (single isomer, unassigned) [Example 86b, 3-cyclopropyl-1-(((trans)-1-methyl-3-(trifluoromethyl)cyclobutyl)methyl)-N-(2-(S-methylsulfonimidoyl)pyridin-4-yl)-4-(trifluoromethyl)-1H-pyrazole-5-carboxamide]
≤ 100 nM	CC1(Cn2nc(C3CCCC3)c(C(F)(F)F)c2C(=O)Nc2ccnc(S(C)(=N)=O)c2)CC(F)(F)C1 (single isomer, unassigned) [Example 59a, 3-Cyclopentyl-1-((3,3-difluoro-1-methylcyclobutyl)methyl)-N-(2-(S-methylsulfonimidoyl)pyridin-4-yl)-4-(trifluoromethyl)-1H-pyrazole-5-carboxamide]
≤ 100 nM	COC12CC(c3nn(CC4(C)CC(F)(F)C4)c(C(=O)Nc4ccnc(S(C)(=N)=O)c4)c3C(F)(F)F)(C1)C2 (centres unmarked) [Example 122, 1-((3,3-Difluoro-1-methylcyclobutyl)methyl)-3-(3-methoxybicyclo[1.1.1]pentan-1-yl)-N-(2-(S-methylsulfonimidoyl)pyridin-4-yl)-4-(trifluoromethyl)-1H-pyrazole-5-carboxamide]
≤ 100 nM	CC1(Cn2nc(C3(F)CC3)c(C(F)(F)F)c2C(=O)Nc2cc(F)cc(S(C)(=N)=O)c2)CC(F)(F)C1 (single isomer, unassigned) [Example 127a, 1-((3,3-Difluoro-1-methylcyclobutyl)methyl)-N-(3-fluoro-5-(S-methylsulfonimidoyl)phenyl)-3-(1-fluorocyclopropyl)-4-(trifluoromethyl)-1H-pyrazole-5-carboxamide]
